Source: US10265337B2, “Use of A3 adenosine receptor agonist in osteoarthritis treatment” (CAN-FITE BIOPHARMA LTD., priority 2005, dated 2019)

How the values were obtained:
rat FLS = experiment: MTT proliferation assay, rat fibroblast like synoviocytes; format: cell-based; conditions: CF101 10 nM added for the last 24 hours of 72 hours, FLS from adjuvant induced arthritis rats, FIG. 1B
Procedure: The effect of IB-MECA (herein at times CF101) alone or in combination with MTX, on the proliferation of the human or rat fibroblast like synoviocytes (FLS) was tested. […] Synovia tissue from adjuvant induced arthritis rats was collected. The tissue was minced and subjected for digestion in 4 mg/ml type I collagenase and 0.25 w/v trypsin in DMEM. The mixture was shacked vigorously for 4 hours at 37°. The released cells were separated from the supernatant by centrifugation and cultured in DMEM containing 15% FCS, 2 mM glutamine, 100 U/ml penicillin, 100 μg/ml streptomycin in a 37° C., 5% CO2 incubator. After overnight incubation the nonadherent cells were removed. The adherent cells (FLS) were sub-cultured at a 1:2 ratio, and the cells from passages 4 through 10 were used in the experiments. The effect of CF101 alone or in combination with MTX, on the proliferation of the FLS was tested utilizing an MTT assay. The cells (5×10^4/ml cells) were incubated in 96-well microtiter plates for 72 hours in the growth medium. At the last 24 hours CF101 (10 nM) were added to the cultures.

[1] = tested on: mono-idoacetate (MIA) experimental osteoarthritis (OA); experiment: MIA experimental osteoarthritis model, roentgenographic examination of knees; format: in vivo, rat; conditions: MIA rats; CF101 100 μg/kg PO twice daily; FIGS. 3A-3D
Procedure: (§1) In the following study the effect of IB-MECA (herein, at times, CF101) on the development of experimental osteoarthritis (OA) was determined. In this study the mono-idoacetate (MIA) experimental model was utilized. The MIA is a rat experimental model that rapidly reproduces the clinical and pathological characteristic of OA. […] Infra-articular injection of MIA induces chondrocyte death in the articular cartilage of rodent. Specifically, male Wistar rats (˜200 gr) (Harlan laboratories) were anesthetized with Isoflurane and the right leg was flexed at a 90° angle of the knee. The MIA was dissolved in physiological saline and 2 mg, at a volume of 50 μL were injected intra-articular of the right foot of each animal, using a 27-gauge, 0.5-inch needle. Treatment with CF101, 100 μg/kg, Per Oz (PO), twice daily was initiated at day 7 post-injection.

[2] = oral, healthy young men; cited from earlier work
[3] = tested on: human fibroblast like synoviocytes (FLS); experiment: MTT proliferation assay, human fibroblast like synoviocytes; format: cell-based; conditions: CF101 10 nM added for the last 24 hours of 72 hours, FLS from OA patients, FIG. 1A
Procedure: The effect of IB-MECA (herein at times CF101) alone or in combination with MTX, on the proliferation of the human or rat fibroblast like synoviocytes (FLS) was tested. […] Human synovial fluid samples were collected from osteoarthritis (OA) patients undergoing paracenthesis. The fluid was centrifuged and the supernatant removed. The cells were resuspended in DMEM containing type I collagenase (4 mg/ml), for 2 hours, and shacked vigorously at 37°. The released cells in the supernatant were harvested by centrifugation and were cultured in DMEM containing 10% FBS, 2 mM glutamine, 100 U/ml penicillin, 100 μg/ml streptomycin, 1% non essential amino acids, 1% sodium pyruvate and […] HEPES buffer in a 37° C., 5% CO2 incubator. After overnight culture, non-adherent cells were removed. The adherent cells (FLS) were subcultured at a 1:2 ratio, and the cells from passages 4 through 10 were used in the experiments. The effect of CF101 alone or in combination with MTX, on the proliferation of the FLS was tested utilizing an MTT assay. The cells (5×10^4/ml cells) were incubated in 96-well microtiter plates for 72 hours in the growth medium. At the last 24 hours CF101 (10 nM) were added to the cultures.

GSK-3β = experiment: Western blot of knee joint protein extracts, GSK-3β; format: in vivo, rat; conditions: OA rats, CF101 treated vs control, FIG. 4E
From the text: (§2) To explore the fate of the A3AR and downstream key signaling proteins participating in the NF-kB and Wnt signaling pathways, knee joints protein extracts from control and CF101 treated animal were subjected to Western blot analysis.

PI3K = experiment: Western blot of knee joint protein extracts, PI3K; format: in vivo, rat; conditions: OA rats, CF101 treated vs control, FIG. 4B
From the text: as §2

A3AR = target: T1, A3AR (Rattus norvegicus, UniProt P28647); experiment: Western blot of knee joint protein extracts, A3AR; format: in vivo; conditions: OA rats, CF101 treated vs control, FIG. 4A
T1 construct: knee joints protein extracts from control and CF101 treated animal were subjected to Western blot analysis; from tissue; host or cells: rat knee joint (OA rats)
T1 sequence (P28647 1-320): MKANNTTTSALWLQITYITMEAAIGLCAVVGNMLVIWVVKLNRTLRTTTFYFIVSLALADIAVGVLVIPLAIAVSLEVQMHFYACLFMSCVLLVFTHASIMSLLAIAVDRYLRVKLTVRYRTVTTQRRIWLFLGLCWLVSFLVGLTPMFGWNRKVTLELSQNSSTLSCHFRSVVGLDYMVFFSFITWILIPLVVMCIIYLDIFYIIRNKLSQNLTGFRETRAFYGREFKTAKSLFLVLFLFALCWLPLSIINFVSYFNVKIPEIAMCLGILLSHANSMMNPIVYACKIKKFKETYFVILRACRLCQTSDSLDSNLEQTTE
From the text: as §2

[4] = tested on: mono-idoacetate (MIA) experimental osteoarthritis (OA); experiment: MIA experimental osteoarthritis model, knee diameter; format: in vivo, rat; conditions: male Wistar rats; CF101 100 μg/kg PO twice daily from day 7 post-injection; vs control group, P=9.48317E-06; FIG. 2
Procedure: as §1, with “post-injection. Knee diameter was measured using calibrated digital caliper adapted by reinforcing the tips for knee diameter measure. The results presented in FIG. 2 show the delta between the diameter of the MIA injected knee (Right knee) and the diameter of the MIA un-injected knee (Left knee) within the same animal. The group of the control is compared to the CF101 treated group (5 animals in each group).” for “post-injection.”

IKK = experiment: Western blot of knee joint protein extracts, IKK; format: in vivo, rat; conditions: OA rats, CF101 treated vs control, FIG. 4C
From the text: as §2

Structure (SMILES): CNC(=O)[C@H]1O[C@@H](n2cnc3c(NCc4cccc(I)c4)ncnc32)[C@H](O)[C@@H]1O [CF101, 1-deoxy-1-{6-[({3-iodophenyl}methyl)amino]-9H-purine-9-yl}-N-methyl-β-D-ribofuranuronamide]
- effect on the proliferation of rat FLS (rat FLS): marked inhibitory effect
- roentgenographic examination of knees [1]: normal tibial epiphysial line without sclerosis
- half life in human plasma [2]: 8 to 10 h
- effect on the proliferation of human FLS [3]: marked inhibitory effect
- GSK-3β expression level in knee joints (GSK-3β): up-regulated
- PI3K expression level in knee joints (PI3K): down-regulation
- A3AR expression level in knee joints (A3AR): down-regulated
- development of tissue swelling (delta between diameter of MIA injected and un-injected knee) [4]: significantly inhibited
- IKK expression level in knee joints (IKK): down-regulation
